We go through eight molecules from patent publication US9440983B2, “Pyrrolo[3,2-d]pyrimidine-2,4(3H,5H)-dione derivatives” (Hydra Biosciences, Inc., priority 2014, dated 2016).

Assay [1] addresses T1, TRPC5 channel (Homo sapiens, UniProt Q9UL62).
T1 construct: expressed in transfected cells; host or cells: HEK293/TREx (Invitrogen), stably transfected, tetracycline-induced
T1 sequence (Q9UL62 1-973): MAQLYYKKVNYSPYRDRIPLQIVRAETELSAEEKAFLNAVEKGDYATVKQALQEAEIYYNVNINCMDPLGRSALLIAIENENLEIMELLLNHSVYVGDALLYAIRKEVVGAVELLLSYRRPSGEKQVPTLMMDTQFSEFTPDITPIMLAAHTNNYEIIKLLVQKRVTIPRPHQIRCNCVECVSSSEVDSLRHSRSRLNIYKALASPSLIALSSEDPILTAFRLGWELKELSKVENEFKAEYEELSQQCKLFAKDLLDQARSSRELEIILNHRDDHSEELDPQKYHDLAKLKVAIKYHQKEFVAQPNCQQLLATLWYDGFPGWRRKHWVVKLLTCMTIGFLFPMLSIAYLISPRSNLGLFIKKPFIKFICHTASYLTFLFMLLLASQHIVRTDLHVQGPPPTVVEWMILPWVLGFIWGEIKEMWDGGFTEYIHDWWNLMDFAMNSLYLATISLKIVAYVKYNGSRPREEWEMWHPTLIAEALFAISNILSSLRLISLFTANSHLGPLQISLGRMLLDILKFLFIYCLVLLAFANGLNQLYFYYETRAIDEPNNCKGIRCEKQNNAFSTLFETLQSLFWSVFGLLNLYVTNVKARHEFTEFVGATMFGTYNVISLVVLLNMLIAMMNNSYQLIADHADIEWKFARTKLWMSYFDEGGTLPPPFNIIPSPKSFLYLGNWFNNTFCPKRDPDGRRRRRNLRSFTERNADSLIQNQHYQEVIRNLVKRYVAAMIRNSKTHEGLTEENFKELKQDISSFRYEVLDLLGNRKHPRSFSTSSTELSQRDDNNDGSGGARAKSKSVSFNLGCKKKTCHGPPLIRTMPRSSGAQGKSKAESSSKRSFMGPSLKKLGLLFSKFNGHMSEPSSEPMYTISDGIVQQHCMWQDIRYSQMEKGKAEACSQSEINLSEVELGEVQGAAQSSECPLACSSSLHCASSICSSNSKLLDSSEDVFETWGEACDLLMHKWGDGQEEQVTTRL
The assay is described as follows: High throughput screening assay: Fluo4 cell-based fluorescence detection of intracellular Ca2+ rise. The note with it: HEK293/TREx cells inducibly expressing TRPC5, high-Ca2+ Ringer (14 mM Ca2+), 7 concentrations in triplicate. The text has this:
The assay depended on detection of the rise in intracellular Ca2+ concentration ([Ca2+]i) following channel activation in cells inducibly expressing the TRPC5 channel. Ca2+ rise was quantified with the use of fluorescent Ca2+ indicators that were loaded into cells and thereafter indicated the [Ca2+]i Ca2+ influx followed activation of the TRPC5 channel. Compounds inhibiting the [Ca2+]i rise were considered hits for further investigation.
The commercially available HEK293/TREx line (Invitrogen) was stably transfected with a TRPC5 construct and screened by conventional calcium imaging to find clones with TRPC5 expression following stimulation with 1 μg/ml tetracycline. These cells were maintained in the growth medium recommended by the manufacturer supplemented with 100 μg/ml hygromycin to promote retention of the TRPC5 construct. After growing to near confluency, cells were plated at a density of ˜35,000 cells/well in 384 well CellBind plates (Corning) in the presence of 1 μg/ml tetracycline, and allowed to grow for 20-30 hrs. A nearly confluent monolayer resulted. Cells were then loaded with Ca2+ dye: Fura-2/AM or Fluo4/AM was added to the wells to a final concentration of 4 μM or 0.5 μM, respectively, and incubated for 80 min or 60 min, respectively, at room temperature. Supernatant was then removed from the cells by inverting plates with a sharp flick, and 25 μl Hank's Balanced Salt Solution (HBSS; 0.185 g/l D-glucose, 0.9767 g/l MgS04 (anhydrous), 0.4 g/l KCl, 0.06 g/l KH2PO4 (anhydrous), 0.35 g/l NaHCO3, 8.0 g/l NaCl, and 0.04788 g/l Na2HPO4 (anhydrous); pH 7.4) was then added to each well. Following ˜0.5 hour for recovery from loading, cells were assayed using the Hamamatsu FDSS 6000 system, which permitted illumination alternately at 340 nm and 380 nm for Fura-2 experiments, or at 485 nm for Fluo4 experiments. Frames were acquired at a rate of 0.2 Hz. During the assay, the plates were continuously vortexed, with pipette mixing of wells following addition of each reagent. For the screening assay, 26 μl of a diluted compound stock (at 50 μM) was added to each well for 2 minutes following the collection of a short (4 frame) baseline. 13 μl 62 mM high-Ca2+ Ringer solution (4.17 ml of normal ringer (with 2 mM Ca2+) plus 5.83 ml of isotonic calcium ringer (105 mM Ca2+; in this ringer all sodium has been replaced with calcium)) was then added to each well, achieving a final concentration of 14 mM Ca2+ and 10 μM test compound. Data was collected for ˜3 minutes following addition of high Ca2+Ringer, where the fluorescent intensity (for Fluo4) and the F340/F380 ratio (for Fura-2) were proportional to the [Ca2+]i Negative controls consisted of HEK293/TREx TRPC5 cells exposed to high Ca2+ solution, but no compound. Positive control conditions consisted of addition of 2-APB, a promiscuous blocker of TRPC5 and other channels, to columns 23 and 24 of the plates, to a final concentration of 200 μM. These controls defined a screening window, and “hits” were defined as those compounds inhibiting the fluorescence response by at least 40%. IC50 values were determined for compounds defined as “hits.” The Fluo4 cell-based fluorescence assay was used to determine the intracellular Ca2+ concentration in the presence of varying drug concentration. Final concentrations of compounds tested were 20 μM, 6.667 μM, 2.222 μM, 0.741 μM, 0.247 μM, 0.082 μM, and 0.027 μM. Compounds were tested in triplicate at all concentrations. Standard software was used to fit IC50 curves.
Additionally or alternatively, efficacy can be represented as % inhibition in the presence (of a given concentration of compound) versus the absence of compound or in comparison to a control compound. For example, efficacy can be represented as % inhibition of ion flux in the presence versus the absence of compound.

For assay [2], the target named is T1, TRPC5 channel. Put plainly: Whole-cell patch clamp experiments, TRPC5 current. The format is cell-based. The note with it: whole-cell patch clamp in TRPC5-expressing HEK293 TREx cells; current activated by LaCl3; IC50 estimated. The text has this: Patch clamp experiments permit the detection of currents through the TRPC5 channel in the cell line described above. In normal whole-cell patch clamp recordings, a glass electrode is brought into contact with a single cell and a high-resistance (gigaohm) seal is established with the cell membrane. The membrane is then ruptured to achieve the whole-cell configuration, permitting control of the voltage of the cell membrane and measurement of currents flowing across the membrane using the amplifier attached to the electrode and resulting in the replacement of cytoplasm with the pipette solution. A perfusion system permits control of the extracellular solution, including the addition of blockers and activators of the current. The current can be activated by including 1.4 μM free Ca^2+ in the pipette (intracellular) solution, and 80 μM LaCl3 in the extracellular solution. TRPC5 cells were induced 20-48 hours, removed from growth plates, and replated at low density (to attain good single-cell physical separation) on glass coverslips for measurement. In some cases, cells were grown in low density overnight on glass coverslips. […] Currents elicited were quantified at −80 mV and +80 mV. The internal solution consisted of 140 mM cesium aspartate, 10 mM HEDTA, 2 mM CaCl2, 2.27 mM MgCl2 and 10 mM HEPES, pH 7.2, with 1,400 nM calculated free Ca^2+. […]

Turning to `Cc1c(-c2cccc(OC(F)(F)F)c2)[nH]c2c(=O)n(CCCO)c(=O)n(C)c12` [Compound 36, 3-(3-hydroxypropyl)-1,7-dimethyl-6-(3-(trifluoromethoxy)phenyl)-1H-pyrrolo[3,2-d]pyrimidine-2,4(3H,5H)-dione], 7540 nM corresponded to half-maximal inhibition at TRPC5 channel [1] (IC50).
For the molecule `Cn1c(=O)n(CCCO)c(=O)c2c1c(-c1cccc(Cl)c1)cn2Cc1ccc(Cl)cc1` [Compound 37, 5-(4-chlorobenzyl)-7-(3-chlorophenyl)-3-(3-hydroxypropyl)-1-methyl-1H-pyrrolo[3,2-d]pyrimidine-2,4(3H,5H)-dione], the IC50 at TRPC5 channel [2] is less than 1 nM; on TRPC5 channel [1] it was 408 nM.
With `Cn1c(=O)n(CCCO)c(=O)c2c1cc(-c1cccc(Cl)c1)n2Cc1ccc(Cl)cc1` [Compound 30, 5-(4-chlorobenzyl)-6-(3-chlorophenyl)-3-(3-hydroxypropyl)-1-methyl-1H-pyrrolo[3,2-d]pyrimidine-2,4(3H,5H)-dione], the concentration for half-maximal inhibition (IC50) at TRPC5 channel [2] is 1.14 nM; at TRPC5 channel [1], 503 nM.
As for `Cn1c(=O)n(CCCO)c(=O)c2c1cc(-c1cccc(OC(F)(F)F)c1)n2Cc1ccc(Cl)cc1` [Compound 35, 5-(4-chlorobenzyl)-3-(3-hydroxypropyl)-1-methyl-6-(3-(trifluoromethoxy)phenyl)-1H-pyrrolo[3,2-d]pyrimidine-2,4(3H,5H)-dione], the IC50 against TRPC5 channel [1] came to 780 nM.
Still for that read-out and setting: the value for `Cc1cn(Cc2ccc(Cl)cc2)c2c(=O)n(CCCO)c(=O)n(C)c12` [Compound 34, 5-(4-chlorobenzyl)-3-(3-hydroxypropyl)-1,7-dimethyl-1H-pyrrolo[3,2-d]pyrimidine-2,4(3H,5H)-dione] was 3080 nM; that for `Cc1c(-c2cccc(OC(F)(F)F)c2)n(C)c2c(=O)n(CCCO)c(=O)n(C)c12` [Compound 33, 3-(3-hydroxypropyl)-1,5,7-trimethyl-6-(3-(trifluoromethoxy)phenyl)-1H-pyrrolo[3,2-d]pyrimidine-2,4(3H,5H)-dione] was 832 nM.
Still for that read-out and setting: the value for `Cc1c(-c2cccc(OC(F)(F)F)c2)n(Cc2ccc(Cl)cc2)c2c(=O)n(CCCO)c(=O)n(C)c12` [Compound 29, 5-(4-chlorobenzyl)-3-(3-hydroxypropyl)-1,7-dimethyl-6-(3-(trifluoromethoxy)phenyl)-1H-pyrrolo[3,2-d]pyrimidine-2,4(3H,5H)-dione] was 421 nM; that for `Cn1c(-c2cccc(OC(F)(F)F)c2)cc2c1c(=O)n(CCCO)c(=O)n2C` [Compound 32, 3-(3-hydroxypropyl)-1,5-dimethyl-6-(3-(trifluoromethoxy)phenyl)-1H-pyrrolo[3,2-d]pyrimidine-2,4(3H,5H)-dione] was 2940 nM.

As usually defined, the IC50 is the concentration at which inhibition is half-maximal.
